Reference: patent publication US7825160B2, “(Biphenyl) carboxylic acids and derivatives thereof” (Cellzome Limited, priority 2004, dated 2010)

Key:
γ-secretase activity = assay: Screening for γ-secretase-modulating activity in SKN neuroblastoma cells carrying APP swedish mutant; format: cell-based; conditions: read-out: IC50 on the γ-secretase activity, Activity range
Protocol: Screening was carried out using SKN neuroblastoma cells carrying the APP-“swedish mutant” (point mutations at position 595 and 596, numbering based on APP695) grown in DMEM/NUT-mix F12 (HAM) provided by Gibco (cat no. 31330-38) containing 5% Serum/Fe supplemented with 1% non-essential amino acids, 100 U/ml Pen/Strep.
Cells were grown to near confluency.
The screening was performed using the assay as described in Citron et al (1997) Nature Medicine 3: 67.
IC50-Values of Selected Compounds of the Invention on the γ-Secretase Activity.

Cyclooxygenase-1 (Cox-1) = target: T1, Cyclooxygenase-1 (Cox-1) (Ovis aries, UniProt P05979); assay: Colorimetric Cox inhibitor screening assay (Cayman), Cox-1; format: biochemical
T1 construct: purchased Cayman Chemical Company 760111
T1 sequence (P05979 25-600): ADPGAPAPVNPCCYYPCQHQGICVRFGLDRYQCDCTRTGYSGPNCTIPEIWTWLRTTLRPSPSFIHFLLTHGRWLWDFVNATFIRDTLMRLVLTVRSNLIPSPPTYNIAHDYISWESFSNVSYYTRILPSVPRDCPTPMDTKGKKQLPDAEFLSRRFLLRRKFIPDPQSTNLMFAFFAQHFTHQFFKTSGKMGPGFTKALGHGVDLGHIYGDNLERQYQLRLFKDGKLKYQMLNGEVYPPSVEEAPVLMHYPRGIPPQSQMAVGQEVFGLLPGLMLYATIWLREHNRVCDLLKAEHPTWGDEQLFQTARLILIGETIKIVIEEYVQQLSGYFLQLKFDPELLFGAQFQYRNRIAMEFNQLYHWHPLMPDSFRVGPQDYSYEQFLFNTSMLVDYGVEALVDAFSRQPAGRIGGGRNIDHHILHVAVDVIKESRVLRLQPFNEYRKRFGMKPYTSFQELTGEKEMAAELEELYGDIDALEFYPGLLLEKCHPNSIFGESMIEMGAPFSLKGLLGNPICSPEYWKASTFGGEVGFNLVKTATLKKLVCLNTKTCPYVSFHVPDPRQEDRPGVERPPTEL
Protocol: (§1) Determination of the Effect of the Compounds According to the Invention on Cyclooxygenase-1 and Cyclooxygenase-2 (Cox-1, Cox-2)
(§2) Inhibition of Cox-1 and Cox-2 was determined using the Colorimetric Cox inhibitor screening assay provided by Cayman Chemical Company, Ann Arbor, Mich., USA. (Cat. No. 760111) according to manufacturer's instructions.

Cyclooxygenase-2 (Cox-2) = target: T2, Cyclooxygenase-2 (Cox-2) (Ovis aries, UniProt P79208); assay: Colorimetric Cox inhibitor screening assay (Cayman), Cox-2; format: biochemical
T2 construct: purchased Cayman Chemical Company 760111
T2 sequence (P79208 17-603): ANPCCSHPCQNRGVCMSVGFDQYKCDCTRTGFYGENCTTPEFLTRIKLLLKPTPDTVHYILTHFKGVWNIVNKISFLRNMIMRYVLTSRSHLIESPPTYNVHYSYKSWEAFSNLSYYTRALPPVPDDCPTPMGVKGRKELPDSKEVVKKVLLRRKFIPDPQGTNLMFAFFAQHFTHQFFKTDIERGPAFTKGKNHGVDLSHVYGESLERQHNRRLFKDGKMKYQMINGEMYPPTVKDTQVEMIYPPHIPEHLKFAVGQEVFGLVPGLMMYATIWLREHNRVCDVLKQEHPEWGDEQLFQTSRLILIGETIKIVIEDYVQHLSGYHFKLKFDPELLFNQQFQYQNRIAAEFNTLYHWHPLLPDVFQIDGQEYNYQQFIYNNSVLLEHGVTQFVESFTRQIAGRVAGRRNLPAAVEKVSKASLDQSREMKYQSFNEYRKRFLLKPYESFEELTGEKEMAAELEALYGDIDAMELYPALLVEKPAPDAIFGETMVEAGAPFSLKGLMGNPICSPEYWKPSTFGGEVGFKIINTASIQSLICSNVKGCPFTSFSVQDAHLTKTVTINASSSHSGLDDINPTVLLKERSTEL
Protocol: as §1, §2

IC50 (γ-secretase activity) [nM] | inhibition at 100 µM (Cyclooxygenase-1 (Cox-1)) [%] | inhibition at 100 µM (Cyclooxygenase-2 (Cox-2)) [%] | SMILES
1000 to 10000 | < 50 | < 50 | O=C(O)C1(c2cc(OCc3ccccc3)cc(-c3ccc(C(F)(F)F)cc3)c2)CC1 [XXI, 1-(5-Benzyloxy-4′-trifluoromethyl-biphenyl-3-yl)-cyclopropanecarboxylic acid]
1000 to 10000 | < 50 | < 50 | O=C(O)Cc1cc(OCc2ccc(F)cc2)cc(-c2ccc(C(F)(F)F)cc2)c1 [I, [5-(4-Fluoro-benzyloxy)-4′-trifluoromethyl-biphenyl-3-yl]-acetic acid]
1000 to 10000 | < 50 | < 50 | O=C(O)Cc1cc(OCc2ccccc2)cc(-c2ccc(C(F)(F)F)cc2)c1 [X, (5-Benzyloxy-4′-trifluoromethyl-biphenyl-3-yl)-acetic acid]
1000 to 10000 | < 50 | < 50 | CC(Oc1cc(CC(=O)O)cc(-c2ccc(C(F)(F)F)cc2)c1)c1ccccc1 (stereo not drawn) [XLVII, [5-(1-Phenyl-ethoxy)-4′-trifluoromethyl-biphenyl-3-yl]-acetic acid]
1000 to 10000 | < 50 | < 50 | CC(C)(C(=O)O)c1cc(OCc2ccccc2)cc(-c2ccc(C(F)(F)F)cc2)c1 [XX, 2-(5-Benzyloxy-4′-trifluoromethyl-biphenyl-3-yl)-2-methyl-propionic acid]
1000 to 10000 | < 50 | < 50 | O=C(O)Cc1cc(OCC2CC2)cc(-c2ccc(C(F)(F)F)cc2)c1 [XLII, (5-Cyclopropylmethoxy-4′-trifluoromethyl-biphenyl-3-yl)-acetic acid]
1000 to 10000 | < 50 | < 50 | CN(C)S(=O)(=O)c1ccc(COc2cc(CC(=O)O)cc(-c3ccc(C(F)(F)F)cc3)c2)cc1 [XLVI, [5-(4-Dimethylsulfamoyl-benzyloxy)-4′-trifluoromethyl-biphenyl-3-yl]-acetic acid]
< 1000 | < 50 | < 50 | CCCC(C(=O)O)c1cc(OCc2ccccc2)cc(-c2ccc(C(F)(F)F)cc2)c1 (stereo not drawn) [VIII, 2-(5-Benzyloxy-4′-trifluoromethyl-biphenyl-3-yl)-pentanoic acid]
1000 to 10000 | < 50 | < 50 | O=C(O)Cc1cc(OCc2ccc(S(=O)(=O)N3CCCC3)cc2)cc(-c2ccc(C(F)(F)F)cc2)c1 [VI, {5-[4-(Pyrrolidine-1-sulfonyl)-benzyloxy]-4′-trifluoromethyl-biphenyl-3-yl}-acetic acid]
1000 to 10000 | < 50 | < 50 | CCCC(C(=O)O)c1cc(OCC2CC2)cc(-c2ccc(C(F)(F)F)cc2)c1 (stereo not drawn) [XL, 2-(5-Cyclopropylmethoxy-4′-trifluoromethyl-biphenyl-3-yl)-pentanoic acid]
1000 to 10000 | < 50 | < 50 | O=C(O)Cc1cc(OCc2ccccc2)cc(-c2cc(Cl)cc(Cl)c2)c1 [IX, (5-Benzyloxy-3′,5′-dichloro-biphenyl-3-yl)-acetic acid]
< 1000 | < 50 | < 50 | O=C(O)Cc1cc(OCc2ccc(C(F)(F)F)cc2)cc(-c2ccc(C(F)(F)F)cc2)c1 [III, [4′-Trifluoromethyl-5-(4-trifluoromethyl-benzyloxy)-biphenyl-3-yl]-acetic acid]
1000 to 10000 | < 50 | < 50 | CCCC(C(=O)O)c1cc(OCc2ccc(S(=O)(=O)N3CCCC3)cc2)cc(-c2ccc(C(F)(F)F)cc2)c1 (stereo not drawn) [XXXIX, 2-{5-[4-(Pyrrolidine-1-sulfonyl)-benzyloxy]-4′-trifluoromethyl-biphenyl-3-yl}-pentanoic acid]
1000 to 10000 | < 50 | < 50 | O=C(O)Cc1cc(OCc2cc(Cl)cc(Cl)c2)cc(-c2ccc(C(F)(F)F)cc2)c1 [XLIV, [5-(3,5-Dichloro-benzyloxy)-4′-trifluoromethyl-biphenyl-3-yl]-acetic acid]
